According to patent US20210395653A1, “COMPOSITIONS FOR TREATMENT AND METHODS FOR MAKING AND USING THE SAME” (ASP Global Manufacturing GmbH, priority 2018, published 2021):

Assay: Solubility of added 5% CHG in commercial detergent compositions
Format: physicochemical

N=C(NCCCCCCNC(=N)NC(=N)Nc1ccc(Cl)cc1)NC(=N)Nc1ccc(Cl)cc1.O=C(O)[C@H](O)[C@@H](O)[C@H](O)[C@H](O)CO.O=C(O)[C@H](O)[C@@H](O)[C@H](O)[C@H](O)CO [CHG, chlorhexidine gluconate]
insoluble: Solubility of CHG in detergent composition C2 (5% CHG added to C2) | Solubility of CHG in detergent composition C3 (5% CHG added to C3) | Solubility of CHG in detergent composition C6 (5% CHG added to C6)
